For four molecules, TGI results are on record in PubChem BioAssay (NCI).

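Exposure lasted 48 hours, with cells grown in 96-well plates and compounds tested at five concentrations. TGI: concentration producing complete growth inhibition.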 Bounds are passed on as bounds.

The first assay has as its system A498 renal. Briefly: NCI anticancer screen, dose series, 48 h.
`CC(=O)O/C(=C1\C[C@H]2[C@@H]3CC=C4C[C@@H](OC(C)=O)CC[C@]4(C)[C@H]3CC[C@]2(C)C1=O)C(F)(F)F` had a TGI of 45.1 µM.
For `CCCN1CN(C(C(=O)N[C@@H]2C(=O)N3C2SC(C)(C)C3C(=O)O)c2ccc(O)cc2)CSC1=S` (stereo partly drawn), the TGI is greater than 100 µM.
The same measure, in the same setting: for `O=P1(c2ccccc2)CCCCC1` the value was greater than 100 µM.

The subject of a further assay is T-47D breast. Briefly: NCI anticancer screen, dose series, 48 h.
The molecule `CC(=O)O/C(=C1\C[C@H]2[C@@H]3CC=C4C[C@@H](OC(C)=O)CC[C@]4(C)[C@H]3CC[C@]2(C)C1=O)C(F)(F)F` gave a TGI of 21.2 µM.

In another assay the test system is DMS 273 small cell lung. The assay is described as follows: NCI anticancer screen, dose series, 48 h.
Molecule `O=[N+]([O-])c1ccc(N2N=C(c3ccc(NCc4nc5ccccc5[nH]4)cc3)CC2c2ccco2)cc1` (stereo not drawn) had a TGI of 51.8 µM.
The same measure, in the same setting: for `CCCN1CN(C(C(=O)N[C@@H]2C(=O)N3C2SC(C)(C)C3C(=O)O)c2ccc(O)cc2)CSC1=S` (stereo partly drawn) the value was greater than 100 µM; for `O=P1(c2ccccc2)CCCCC1`, greater than 100 µM.

Another assay deals with SK-MEL-28 melanoma. The assay is described as follows: NCI anticancer screen, dose series, 48 h.
Consider `O=[N+]([O-])c1ccc(N2N=C(c3ccc(NCc4nc5ccccc5[nH]4)cc3)CC2c2ccco2)cc1` (stereo not drawn), for which the TGI is greater than 100 µM.
Still for that read-out and setting: under `CC(=O)O/C(=C1\C[C@H]2[C@@H]3CC=C4C[C@@H](OC(C)=O)CC[C@]4(C)[C@H]3CC[C@]2(C)C1=O)C(F)(F)F` stands 31.9 µM.
The same measure, in the same setting: for `CCCN1CN(C(C(=O)N[C@@H]2C(=O)N3C2SC(C)(C)C3C(=O)O)c2ccc(O)cc2)CSC1=S` (stereo partly drawn) the value was greater than 100 µM; for `O=P1(c2ccccc2)CCCCC1`, greater than 100 µM.

In another assay the test system is PC-3 prostate. The assay is described as follows: NCI anticancer screen, dose series, 48 h.
On to `CC(=O)O/C(=C1\C[C@H]2[C@@H]3CC=C4C[C@@H](OC(C)=O)CC[C@]4(C)[C@H]3CC[C@]2(C)C1=O)C(F)(F)F`, for which the TGI stood at 27.3 µM.

A further assay relates to SF-539 CNS. Briefly: NCI anticancer screen, dose series, 48 h.
The molecule `O=[N+]([O-])c1ccc(N2N=C(c3ccc(NCc4nc5ccccc5[nH]4)cc3)CC2c2ccco2)cc1` (stereo not drawn) yielded a TGI of 84.4 µM.
The same measure, in the same setting: under `CC(=O)O/C(=C1\C[C@H]2[C@@H]3CC=C4C[C@@H](OC(C)=O)CC[C@]4(C)[C@H]3CC[C@]2(C)C1=O)C(F)(F)F` stands 15.2 µM.
`CCCN1CN(C(C(=O)N[C@@H]2C(=O)N3C2SC(C)(C)C3C(=O)O)c2ccc(O)cc2)CSC1=S` (stereo partly drawn) had a TGI greater than 100 µM.
Still for that read-out and setting: under `O=P1(c2ccccc2)CCCCC1` stands greater than 100 µM.

For the next assay, the system named is U251 CNS. The assay is described as follows: NCI anticancer screen, dose series, 48 h.
For the molecule `O=[N+]([O-])c1ccc(N2N=C(c3ccc(NCc4nc5ccccc5[nH]4)cc3)CC2c2ccco2)cc1` (stereo not drawn), the TGI is greater than 100 µM.
`CC(=O)O/C(=C1\C[C@H]2[C@@H]3CC=C4C[C@@H](OC(C)=O)CC[C@]4(C)[C@H]3CC[C@]2(C)C1=O)C(F)(F)F` came in with a TGI of 17.7 µM.
As for `CCCN1CN(C(C(=O)N[C@@H]2C(=O)N3C2SC(C)(C)C3C(=O)O)c2ccc(O)cc2)CSC1=S` (stereo partly drawn), the TGI was greater than 100 µM.
The same measure, in the same setting: for `O=P1(c2ccccc2)CCCCC1` the value was greater than 100 µM.

The test system of another assay is XF 498 CNS. Briefly: NCI anticancer screen, dose series, 48 h.
`CCCN1CN(C(C(=O)N[C@@H]2C(=O)N3C2SC(C)(C)C3C(=O)O)c2ccc(O)cc2)CSC1=S` (stereo partly drawn): the TGI is greater than 100 µM.

The next assay relates to UO-31 renal. The assay is described as follows: NCI anticancer screen, dose series, 48 h.
In turn, `O=[N+]([O-])c1ccc(N2N=C(c3ccc(NCc4nc5ccccc5[nH]4)cc3)CC2c2ccco2)cc1` (stereo not drawn) gave a TGI of 55.4 µM.
`CC(=O)O/C(=C1\C[C@H]2[C@@H]3CC=C4C[C@@H](OC(C)=O)CC[C@]4(C)[C@H]3CC[C@]2(C)C1=O)C(F)(F)F`: the TGI stood at 32.1 µM.
Same read-out and setting: under `CCCN1CN(C(C(=O)N[C@@H]2C(=O)N3C2SC(C)(C)C3C(=O)O)c2ccc(O)cc2)CSC1=S` (stereo partly drawn) stands greater than 100 µM.
Take `O=P1(c2ccccc2)CCCCC1`: the TGI is greater than 100 µM.

The test system of another assay is HCT-116 colon. Briefly: NCI anticancer screen, dose series, 48 h.
In the case of `O=[N+]([O-])c1ccc(N2N=C(c3ccc(NCc4nc5ccccc5[nH]4)cc3)CC2c2ccco2)cc1` (stereo not drawn), the TGI worked out at 57.3 µM.
Same read-out and setting: for `CC(=O)O/C(=C1\C[C@H]2[C@@H]3CC=C4C[C@@H](OC(C)=O)CC[C@]4(C)[C@H]3CC[C@]2(C)C1=O)C(F)(F)F` the value was 18.8 µM; for `CCCN1CN(C(C(=O)N[C@@H]2C(=O)N3C2SC(C)(C)C3C(=O)O)c2ccc(O)cc2)CSC1=S` (stereo partly drawn), greater than 100 µM.
The molecule `O=P1(c2ccccc2)CCCCC1` returned a TGI greater than 100 µM.

The test system of another assay is SR leukemia. The assay is described as follows: NCI anticancer screen, dose series, 48 h.
As to `O=[N+]([O-])c1ccc(N2N=C(c3ccc(NCc4nc5ccccc5[nH]4)cc3)CC2c2ccco2)cc1` (stereo not drawn), the TGI was determined as 33.8 µM.
Molecule `CC(=O)O/C(=C1\C[C@H]2[C@@H]3CC=C4C[C@@H](OC(C)=O)CC[C@]4(C)[C@H]3CC[C@]2(C)C1=O)C(F)(F)F` yielded a TGI of 10.9 µM.
On the same count and under the same terms, under `O=P1(c2ccccc2)CCCCC1` stands greater than 100 µM.

A further assay has as its system RPMI-8226 leukemia. The assay is described as follows: NCI anticancer screen, dose series, 48 h.
Turning to `O=[N+]([O-])c1ccc(N2N=C(c3ccc(NCc4nc5ccccc5[nH]4)cc3)CC2c2ccco2)cc1` (stereo not drawn), the TGI was found to be 94.5 µM.
In turn, `CC(=O)O/C(=C1\C[C@H]2[C@@H]3CC=C4C[C@@H](OC(C)=O)CC[C@]4(C)[C@H]3CC[C@]2(C)C1=O)C(F)(F)F` yielded a TGI of 15.8 µM.
On the same count and under the same terms, for `CCCN1CN(C(C(=O)N[C@@H]2C(=O)N3C2SC(C)(C)C3C(=O)O)c2ccc(O)cc2)CSC1=S` (stereo partly drawn) the value was greater than 100 µM; for `O=P1(c2ccccc2)CCCCC1`, greater than 100 µM.

Another assay deals with NCI-H23 lung. Briefly: NCI anticancer screen, dose series, 48 h.
Consider `O=[N+]([O-])c1ccc(N2N=C(c3ccc(NCc4nc5ccccc5[nH]4)cc3)CC2c2ccco2)cc1` (stereo not drawn), for which the TGI amounted to 55.9 µM.
On the same count and under the same terms, for `CC(=O)O/C(=C1\C[C@H]2[C@@H]3CC=C4C[C@@H](OC(C)=O)CC[C@]4(C)[C@H]3CC[C@]2(C)C1=O)C(F)(F)F` the value was 18.3 µM; for `CCCN1CN(C(C(=O)N[C@@H]2C(=O)N3C2SC(C)(C)C3C(=O)O)c2ccc(O)cc2)CSC1=S` (stereo partly drawn), greater than 100 µM; for `O=P1(c2ccccc2)CCCCC1`, greater than 100 µM.

The next assay concerns OVCAR-5 ovarian. Briefly: NCI anticancer screen, dose series, 48 h.
In turn, `O=[N+]([O-])c1ccc(N2N=C(c3ccc(NCc4nc5ccccc5[nH]4)cc3)CC2c2ccco2)cc1` (stereo not drawn) returned a TGI greater than 100 µM.
Molecule `CC(=O)O/C(=C1\C[C@H]2[C@@H]3CC=C4C[C@@H](OC(C)=O)CC[C@]4(C)[C@H]3CC[C@]2(C)C1=O)C(F)(F)F` displayed a TGI of 58.6 µM.
Turning to `CCCN1CN(C(C(=O)N[C@@H]2C(=O)N3C2SC(C)(C)C3C(=O)O)c2ccc(O)cc2)CSC1=S` (stereo partly drawn), the TGI is greater than 100 µM.
Molecule `O=P1(c2ccccc2)CCCCC1` yielded a TGI greater than 100 µM.

Another assay relates to COLO 205 colon. Briefly: NCI anticancer screen, dose series, 48 h.
Consider `O=[N+]([O-])c1ccc(N2N=C(c3ccc(NCc4nc5ccccc5[nH]4)cc3)CC2c2ccco2)cc1` (stereo not drawn), for which the TGI was found to be 77.9 µM.
Regarding `CC(=O)O/C(=C1\C[C@H]2[C@@H]3CC=C4C[C@@H](OC(C)=O)CC[C@]4(C)[C@H]3CC[C@]2(C)C1=O)C(F)(F)F`, the TGI is 25.7 µM.
As to `CCCN1CN(C(C(=O)N[C@@H]2C(=O)N3C2SC(C)(C)C3C(=O)O)c2ccc(O)cc2)CSC1=S` (stereo partly drawn), the TGI is greater than 100 µM.
Same read-out and setting: under `O=P1(c2ccccc2)CCCCC1` stands greater than 100 µM.

Another assay concerns MDA-MB-435. The assay is described as follows: NCI anticancer screen, dose series, 48 h.
`CC(=O)O/C(=C1\C[C@H]2[C@@H]3CC=C4C[C@@H](OC(C)=O)CC[C@]4(C)[C@H]3CC[C@]2(C)C1=O)C(F)(F)F` registered a TGI of 16.4 µM.

A further assay concerns SNB-75 CNS. The assay is described as follows: NCI anticancer screen, dose series, 48 h.
The molecule `O=[N+]([O-])c1ccc(N2N=C(c3ccc(NCc4nc5ccccc5[nH]4)cc3)CC2c2ccco2)cc1` (stereo not drawn) displayed a TGI greater than 100 µM.
The same measure, in the same setting: under `CC(=O)O/C(=C1\C[C@H]2[C@@H]3CC=C4C[C@@H](OC(C)=O)CC[C@]4(C)[C@H]3CC[C@]2(C)C1=O)C(F)(F)F` stands 47.4 µM.
In turn, `CCCN1CN(C(C(=O)N[C@@H]2C(=O)N3C2SC(C)(C)C3C(=O)O)c2ccc(O)cc2)CSC1=S` (stereo partly drawn) gave a TGI greater than 100 µM.
Same read-out and setting: for `O=P1(c2ccccc2)CCCCC1` the value was greater than 100 µM.
